Consider 12 compounds from patent US10988477B2 (Merck Patent GmbH, priority 2018, dated 2021).

Each structure is given as a SMILES string.

One experiment has as its target GCN2 kinase (Homo sapiens, UniProt Q9P2K8). Nature of the experiment: GCN2 enzyme inhibition assay (Transcreener ADP2 fluorescence polarization). The experiment is classed as biochemical. The conditions noted are these: compounds of Formula II; 280 μM ATP, 4 nM GCN2 kinase. Put shortly:
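ADP formation read by Transcreener FP after a 1 h, 25 °C kinase reaction containing 280 μM ATP, 200 μM (RS)7 substrate and 4 nM GCN2, pH 7.5 Tris buffer. Compounds (0–8 μM final) were added 10 min before ATP. Percent inhibition gave IC50 and apparent Ki via tight-binding fit.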

Experiment [1] has as its target intracellular GCN2 (phosphorylation of the GCN2 substrate eIF2α) (Homo sapiens, UniProt Q9P2K8). Nature of the experiment: GCN2 cellular inhibition assay (AlphaScreen SureFire P-eIF2α Ser51, borrelidin-treated U2OS cells). The experiment is classed as cell-based. To be noted: compounds of Formula II; biomarker assay, phosphorylated eIF2α Ser51 in borrelidin-treated U2OS cells. Put shortly:
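Compound effect on GCN2 is gauged by eIF2α Ser51 phosphorylation in borrelidin-challenged U2OS cells (10 μM, 1 h). Top compound level is 40 μM final.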
For orientation: In Alpha technology, singlet oxygen from a donor bead excites a nearby acceptor bead.

Sequence of GCN2 kinase (Q9P2K8 whole entry): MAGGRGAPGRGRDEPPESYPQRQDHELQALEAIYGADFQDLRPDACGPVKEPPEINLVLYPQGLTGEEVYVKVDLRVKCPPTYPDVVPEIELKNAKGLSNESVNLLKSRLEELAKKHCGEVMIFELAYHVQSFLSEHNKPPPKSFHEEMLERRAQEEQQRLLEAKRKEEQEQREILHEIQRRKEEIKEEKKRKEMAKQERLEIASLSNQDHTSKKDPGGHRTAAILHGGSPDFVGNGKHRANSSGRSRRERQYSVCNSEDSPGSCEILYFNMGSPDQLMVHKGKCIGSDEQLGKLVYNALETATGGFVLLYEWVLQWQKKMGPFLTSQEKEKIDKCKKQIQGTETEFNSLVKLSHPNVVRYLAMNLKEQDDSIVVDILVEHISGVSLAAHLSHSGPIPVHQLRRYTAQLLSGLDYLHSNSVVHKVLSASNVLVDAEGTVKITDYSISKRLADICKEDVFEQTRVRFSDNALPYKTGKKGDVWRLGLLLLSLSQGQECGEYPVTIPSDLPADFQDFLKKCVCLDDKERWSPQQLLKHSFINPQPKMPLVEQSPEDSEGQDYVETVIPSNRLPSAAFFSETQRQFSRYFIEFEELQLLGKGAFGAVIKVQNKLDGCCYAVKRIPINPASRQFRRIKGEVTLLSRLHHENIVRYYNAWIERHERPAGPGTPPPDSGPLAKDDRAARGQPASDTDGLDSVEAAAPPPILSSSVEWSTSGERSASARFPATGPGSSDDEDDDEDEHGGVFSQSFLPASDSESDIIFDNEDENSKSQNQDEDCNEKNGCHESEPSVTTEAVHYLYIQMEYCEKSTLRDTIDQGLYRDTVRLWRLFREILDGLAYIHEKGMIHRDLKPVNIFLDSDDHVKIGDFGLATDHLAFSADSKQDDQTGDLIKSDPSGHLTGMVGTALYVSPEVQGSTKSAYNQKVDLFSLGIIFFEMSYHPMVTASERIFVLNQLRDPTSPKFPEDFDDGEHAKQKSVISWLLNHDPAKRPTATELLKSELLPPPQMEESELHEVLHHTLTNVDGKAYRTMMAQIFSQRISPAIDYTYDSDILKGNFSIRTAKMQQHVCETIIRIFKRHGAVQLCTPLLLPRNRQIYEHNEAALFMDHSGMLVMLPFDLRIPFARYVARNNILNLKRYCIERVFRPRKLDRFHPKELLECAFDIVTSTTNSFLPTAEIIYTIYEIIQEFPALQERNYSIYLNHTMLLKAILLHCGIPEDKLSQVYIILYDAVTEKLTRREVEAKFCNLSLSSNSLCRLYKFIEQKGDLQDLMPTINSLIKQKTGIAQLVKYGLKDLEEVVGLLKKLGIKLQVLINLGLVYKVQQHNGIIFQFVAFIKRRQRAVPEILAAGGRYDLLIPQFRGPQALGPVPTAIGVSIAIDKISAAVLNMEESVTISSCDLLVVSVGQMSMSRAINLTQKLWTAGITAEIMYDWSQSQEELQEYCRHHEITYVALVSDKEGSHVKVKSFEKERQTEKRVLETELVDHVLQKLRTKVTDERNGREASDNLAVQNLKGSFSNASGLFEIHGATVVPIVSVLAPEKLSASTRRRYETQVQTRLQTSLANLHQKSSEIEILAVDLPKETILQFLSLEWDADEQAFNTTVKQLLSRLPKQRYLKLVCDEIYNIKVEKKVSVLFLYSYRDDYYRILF
Sequence of intracellular GCN2 (phosphorylation of the GCN2 substrate eIF2α) (Q9P2K8 whole entry): as above

Consider `NC(=O)C1COCCN(c2cc(-c3cnc4ccc(C(F)F)nn34)ncn2)C1` (stereo not drawn) [II-210, 4-(6-(6-(Difluoromethyl)imidazo[1,2-b]pyridazin-3-yl)pyrimidin-4-yl)-1,4-oxazepane-6-carboxamide], for which the Ki on GCN2 kinase was in the range of 10 to 1000 nM. Besides, the half-inhibitory concentration (IC50) in experiment [1] is more than 5000 nM.
The corresponding values for `O=C1CCC2(CCN(c3cc(-c4cnc5ccc(C(F)F)nn45)ncn3)CC2)CN1` [II-211, 9-(6-(6-(Difluoromethyl)imidazo[1,2-b]pyridazin-3-yl)pyrimidin-4-yl)-2,9-diazaspiro[5.5]undecan-3-one] are 10 to 1000 nM and 500 to 5000 nM.
As to `NC(=O)CCC1CCN(c2cc(-c3cnc4ccc(C(F)F)nn34)ncn2)CC1` [II-212, 3-(1-(6-(6-(Difluoromethyl)imidazo[1,2-b]pyridazin-3-yl)pyrimidin-4-yl)piperidin-4-yl)propanamide], at GCN2 kinase, the inhibitory constant (Ki) lay in the range of 10 to 1000 nM. For the same compound, in experiment [1], the 50% inhibitory concentration (IC50) lay within 500 to 5000 nM.
For `CC1(C)CN(c2cc(-c3cnc4ccc(C(F)F)nn34)ncn2)CC1CNS(C)(=O)=O` (stereo not drawn) [II-213, N-((1-(6-(6-(Difluoromethyl)imidazo[1,2-b]pyridazin-3-yl)pyrimidin-4-yl)-4,4-dimethylpyrrolidin-3-yl)methyl)methanesulfonamide], on GCN2 kinase, the Ki was less than 10 nM. In addition, the half-maximal inhibitory concentration (IC50) in experiment [1] lay in the range of 500 to 5000 nM.
As to `NC(=O)CCC1CCCN(c2cc(-c3cnc4ccc(C(F)F)nn34)ncn2)C1` (stereo not drawn) [II-214, 3-(1-(6-(6-(Difluoromethyl)imidazo[1,2-b]pyridazin-3-yl)pyrimidin-4-yl)piperidin-3-yl)propanamide], the Ki on GCN2 kinase fell in the range of 10 to 1000 nM. The concentration for half-maximal inhibition (IC50) in experiment [1] was 500 to 5000 nM.
As to `NC(=O)NCC1CCCN(c2cc(-c3cnc4ccc(C(F)F)nn34)ncn2)C1` (stereo not drawn) [II-215, 1-((1-(6-(6-(Difluoromethyl)imidazo[1,2-b]pyridazin-3-yl)pyrimidin-4-yl)piperidin-3-yl)methyl)urea], the inhibition constant Ki on GCN2 kinase was in the range of 10 to 1000 nM. Besides, in experiment [1], the IC50 was 500 to 5000 nM.
The corresponding values for `O=C(NC1CC1)NC1CCN(c2cc(-c3cnc4ccc(C(F)F)nn34)ncn2)C1` (stereo not drawn) [II-216, 1-Cyclopropyl-3-(1-(6-(6-(difluoromethyl)imidazo[1,2-b]pyridazin-3-yl)pyrimidin-4-yl)pyrrolidin-3-yl)urea] are 10 to 1000 nM and more than 5000 nM.
For `FC(F)c1ccc2ncc(-c3cc(N4CCC(Cc5ccn[nH]5)CC4)ncn3)n2n1` [II-217, 3-(6-(4-((1H-Pyrazol-5-yl)methyl)piperidin-1-yl)pyrimidin-4-yl)-6-(difluoromethyl)imidazo[1,2-b]pyridazine], in that order: 10 to 1000 nM and 500 to 5000 nM.
The corresponding values for `CC(=O)Nc1cccc2c1CCN(c1cc(-c3cnc4ccc(C(F)F)nn34)ncn1)C2` [II-218, N-(2-(6-(6-(Difluoromethyl)imidazo[1,2-b]pyridazin-3-yl)pyrimidin-4-yl)-1,2,3,4-tetrahydroisoquinolin-5-yl)acetamide] are 10 to 1000 nM and 500 to 5000 nM.
In turn, `NS(=O)(=O)CC1CCCN(c2cc(-c3cnc4ccc(C(F)F)nn34)ncn2)C1` (stereo not drawn) [II-219, (1-(6-(6-(Difluoromethyl)imidazo[1,2-b]pyridazin-3-yl)pyrimidin-4-yl)piperidin-3-yl)methanesulfonamide] gave a Ki at GCN2 kinase of less than 10 nM. The compound further yielded a half-inhibitory concentration (IC50) in experiment [1] of less than 500 nM.
The compound `CC1C(CNS(C)(=O)=O)CCCN1c1cc(-c2cnc3ccc(C(F)F)nn23)ncn1` (stereo not drawn) [II-221, N-((1-(6-(6-(Difluoromethyl)imidazo[1,2-b]pyridazin-3-yl)pyrimidin-4-yl)-2-methylpiperidin-3-yl)methyl)methanesulfonamide] returned an inhibition constant (Ki) on GCN2 kinase of less than 10 nM. The IC50 in experiment [1] is less than 500 nM.
For `CC(=O)N1CCCC(c2cc(-c3cnc4ccc(C(F)F)nn34)ncn2)C1` (stereo not drawn) [II-222, 1-(3-(6-(6-(Difluoromethyl)imidazo[12-b]pyridazin-3-yl)pyrimidin-4-yl)piperidin-1-yl)ethan-1-one], in that order: 10 to 1000 nM and 500 to 5000 nM.

In general, Ki refers to a dissociation constant, usually derived from enzyme kinetics or from competition with a known ligand. Lower therefore signals higher affinity. In general, IC50 refers to the concentration that gives 50% inhibition.
